In US6610333B1, “Feed supplement for arthropods” (Universita Degli Studi di Milano, priority 1998, dated 2003):

Tests used:
[1] = system: membrane vesicles purified from the midgut tissue of B. mori larvae; assay: Uptake of radiolabeled leucine into membrane vesicles from B. mori larval midgut; format: biochemical, Bombyx mori; conditions: 0.2 mM test substance, 0.1 mM L-leucine, pH 10.8, 7 seconds incubation; None (control) 450 ± 20
Protocol: The effect of different esters and aminoesters was tested in vitro by measuring the uptake of radiolabeled leucine into membrane vesicles purified from the midgut tissue of B. mori larvae.
Uptakes were measured by incubating 10 μl of membrane vesicles and 40 μl of a isosmotic mixture buffered at pH 10.8 and containing 0.1 mM L-leucine, 30 μCi/ml of L-[3H]-leucine as a tracer and 0.2 mM of the substances indicated. Incubations were stopped after 7 seconds by 75-fold dilution in an ice-cold isotonic saline and filtration through cellulose filters (0.2 μm mesh). Filters were then counted for radioactivity in a scintillation counter and data were expressed per mg of membrane proteins. Vesicles were prepared by calcium precipitation and differential centrifugation from Bombyx mori larval midgut according to standard biochemical protocols.

Bombyx mori larvae = assay: Rearing of Bombyx mori larvae on artificial diet supplemented with ester; format: in vivo; conditions: 130 mg per 1 kg of diet; for Percent of mortality: first three larval instars

Compound	Leucine uptake [1]	also measured
CCC(C)CC(=O)OC (stereo not shown) [3-methylvaleric methyl ester]	800 ± 30 pmol/7s/mg membrane protein	
COC(=O)CCC(C)C [4-methylvaleric methyl ester]	2600 ± 80 pmol/7s/mg membrane protein	
CCOC(=O)[C@@H](N)CC(C)C [Leucine ethyl ester]	2200 ± 75 pmol/7s/mg membrane protein	
COC(=O)[C@@H](N)CC(C)C [Leucine methyl ester, L-leucine methyl ester]	4500 ± 150 pmol/7s/mg membrane protein	Weight of cocoon shell (Bombyx mori larvae; Polyhybrid (28 × 15) × (10 × 14), control 0.32 ± 0.02): 0.46 ± 0.03 g; Weight of cocoon shell (Bombyx mori larvae; Race BG35, control 0.25 ± 0.02): 0.31 ± 0.01 g; Percent of mortality (Bombyx mori larvae; Polyhybrid (28 × 15) × (10 × 14), control 19): 0%; Percent of mortality (Bombyx mori larvae; Race 21 Molucelli, control 30): 20%
COC(=O)[C@@H](N)CCSC [Methionine methyl ester, L-methionine methyl ester]	4000 ± 180 pmol/7s/mg membrane protein	
CCCC[C@H](N)C(=O)OC [Norleucine methyl ester]	3800 ± 100 pmol/7s/mg membrane protein	
